These results are taken from a melting point compilation (Tetko et al.; mined from patent text by program, amines drawn as free bases though some values may be those of a salt).

Usually melting point stands for the temperature, or range, at which the solid turns liquid.

Each structure is given as a SMILES string.

With `COc1ccc(-c2cc(-c3c(-c4cccc(C)n4)nc4ccccn34)ccn2)cc1`, the melting point was 174 °C.

`ClCc1ccc(-c2ccccc2)cn1` displayed a melting point of 73 °C.

For the compound `OCCCNc1cc(-c2ccnc(Nc3cccc(C(F)(F)F)c3)n2)ccn1`, the melting point fell in the range of 158 to 163 °C. As to `CCOC(=O)c1cc(-n2c(=O)c3c(n(C)c2=O)CCC3)ccc1[N+](=O)[O-]`, the melting point fell in the range of 188 to 190 °C. The compound `O=C(O)C[C@@H](NC(=O)CN1C[C@H](c2ccccc2)Oc2ccc(NC(=O)NCc3ccccc3)cc2C1=O)c1ccccc1` came in with a melting point of 138 to 140 °C. With `CC(C)Cc1ccc(C2(c3ccccc3)OC(=O)C(O)=C2O)cc1` (stereo not given), the melting point was in the range of 138 to 139 °C. For the compound `CC(=O)SCC(C(=O)O)C(F)(F)F` (stereo not given), the melting point was in the range of 28 to 30 °C. Consider `N#Cc1ccc2c(c1)CCC=C2c1cncs1`, for which the melting point fell in the range of 78 to 79 °C.

Consider `N#Cc1c(N)ccc2cc(Cl)cnc12`, for which the melting point came out at 246 °C. `CCC(=O)c1cc(C(=O)O)c2cc(Cc3ccc(F)cc3)cnc2c1O`: the melting point lay within 235 to 237 °C. The figure for `CCCCCCc1cc2c(cc1/C=C/c1ccc(C(=O)O)s1)C(C)(C)CCC2(C)C` is 164 to 165 °C. In turn, `Cn1nc(-c2cnc(N)nc2-c2ccc(Cl)c(Cl)c2)ccc1=O` returned a melting point of 238 °C. As for `Cc1ccc(Cl)c(NS(=O)(=O)c2nc(C)n(-c3ncccn3)n2)c1Cl`, the melting point is 214 to 216 °C.

On to `Clc1nc2cccc3c2n1CCC3`, for which the melting point stood at 78 °C. Turning to `CCCn1c(COCC)nc2c(N)nc3ccc(OCCNC(=O)N4CCOCC4)cc3c21`, the melting point lay within 203 to 208 °C. For the compound `CC#CC(C)(C)NC(=O)C(Oc1cc(Cl)nc(Cl)c1)SC` (stereo not given), the melting point was 141 to 142 °C. The figure for `O=C1CCCC2=C1C(c1ccc(F)c(C(F)(F)F)c1)C1=C(CCS1)N2` (single isomer, unassigned; (+)) is greater than 250 °C; for `OC(Cc1ccccn1)(c1ccccc1)c1ccccc1` it is 147 to 151 °C. The figure for `O=C(NCCCCCCCCF)N1CCC(Nc2ccc(CCNC[C@H](O)COc3ccc(O)cc3)cc2)CC1` is 78 to 80 °C; for `CCCCOCCOc1ccc(-c2cnc(N3CCCC3)c(/C=C(\C)C(=O)O)c2)cc1` it is 106 to 107 °C. The compound `Cc1nc(-c2ccc3c(c2)CCCC3)c(CC(Cl)C(=O)O)o1` (stereo not given) yielded a melting point of 141 to 142 °C. The figure for `Cn1c2c(c3ccccc31)C(=O)C(=Cc1c[nH]cn1)CC2` is 225 to 232 °C. In the case of `CC(=O)Oc1cc(C)cc(C2(CC#N)N=NC=C2c2cc(NCC(C)OC(C)=O)nc(-c3cccnc3)n2)c1` (stereo not given), the melting point came out at 230 °C.

Take `C[C@H]1CCCC(C)(C)[C@@H]1[C@H](O)c1ccc(OC(F)(F)F)cc1`: the melting point fell in the range of 29 to 33 °C. The figure for `Cc1c(-c2ccccc2)oc2c(C(=O)NCCCN3CCN(c4ccccc4O)CC3)cccc2c1=O` is 118 to 120 °C; for `N#Cc1ccc(C(F)(F)F)c(C(F)(F)F)c1` it is 71 to 72 °C; for `COc1ccc(NC(=O)c2nc3c(s2)C(=O)C=C(NCCCN(C)CCCNC2=CC(=O)c4sc(C)nc4C2=O)C3=O)cc1` it is 141 to 142 °C. `Cc1ccc(-c2ccc3c(c2)C=C(C(=O)Nc2ccc(-c4cccnc4)cc2)CCO3)cc1` had a melting point of 214 to 216 °C. With `COc1ccc(C(=O)Nc2ccc(-c3ncc(-c4ccc(NC(=O)C5CCCCCC5)cc4)[nH]3)cc2)cc1`, the melting point lay in the range of 311 to 313 °C. The value for `Cc1ccccc1-n1c(C=Cc2ccccc2F)nc2cnccc2c1=O` was 211 to 212 °C; that for `COc1ccc(CC(C)NCC(O)c2cccc(Cl)c2F)cc1` (stereo not given) was 95 to 101 °C; that for `Nc1cccc(-c2ccc(OCCN3CC4C(N)C4C3)c3ccccc23)n1` (stereo not given) was 140 to 155 °C.

`CS(=O)(=O)c1ccc(-c2cc(=O)n(CC3CCCC3)nc2-c2ccc(F)cc2)cc1` had a melting point of 76 to 77 °C. For the compound `Nc1ccc(Cc2nc3ccccc3o2)cc1`, the melting point was in the range of 105 to 106 °C. `CCn1c(COCc2ccccc2)nc(C(C)C)c1Sc1cccc(Cl)c1` registered a melting point of 99 to 100 °C. The value for `O=C(Oc1ccc(Cl)cn1)c1cc2ccccc2sc1=O` was 174 to 176 °C. Regarding `O=c1c2c(O)c(O)ccc2c2cc(O)c(O)cc2n1Cc1ccc(Cl)c(Cl)c1`, the melting point was 246 °C. On to `Cc1c(OC(F)F)ccnc1CSc1nc2ccccc2[nH]1`, for which the melting point fell in the range of 99 to 100 °C. Compound `COC(=O)C(C)Oc1cccc2cccnc12` (stereo not given) gave a melting point of 70 to 72 °C. `CCOC(=O)COc1cc(OC)c2c(c1S(N)(=O)=O)OC1(CCCCC1)CC2=O` had a melting point of 188 to 190 °C. `O=C(Oc1ccc(Oc2ccc(C(F)(F)F)cn2)cc1)N1CCN(c2ncccc2C(F)(F)F)CC1`: the melting point lay within 131 to 132 °C.

Regarding `NS(=O)(=O)c1cc(C(=O)O)cc([N+](=O)[O-])c1Oc1ccc(OCc2ccccc2)cc1`, the melting point is 247 °C.

In turn, `COC(=O)c1cccc(OC2CCOc3ccc(OCc4ccccc4)cc3C2=O)c1` (stereo not given) came in with a melting point of 134 to 136 °C. `COc1ccc(CCS(N)(=O)=S)cc1` (stereo not given) showed a melting point of 186 to 187 °C.

`CC(C)(C)c1cc(Cc2cc(C(C)(C)C)cc(C(C)(C)C)c2O)c(O)c(C(C)(C)C)c1`: the melting point was 141 to 142 °C. The compound `CCCC(C)N1CCC2(CC1)CSC1=C(O2)c2ccccc2C(=O)C1=O` (stereo not given) registered a melting point of 109 to 111 °C. The compound `Cc1cc(Cl)ccc1-c1nc(=O)c2ccccc2s1` registered a melting point of 134 °C. The value for `CC(C)n1cnc2c(NCc3cccnc3)nc(F)nc21` was 131 to 133 °C.

The compound `COC(=O)c1cc(S(C)(=O)=O)c(NS(=O)(=O)c2sc3ccc(Cl)cc3c2C)cc1C` gave a melting point of 205 to 207 °C. `Cc1cc2ncn(C)c(=O)c2s1`: the melting point was in the range of 188 to 190 °C. Regarding `COc1ccc2[nH]c(/C=C/C=O)cc2c1`, the melting point fell in the range of 145 to 147 °C. The value for `Cn1c(=O)c(=O)[nH]c2ccc3c(c21)CCCN3` was greater than 285 °C; that for `Cc1cc2n(c1C(=O)c1cccs1)CCC2C(=O)O` (stereo not given) was 166 °C; that for `Cc1nc2c3c(ccn2c1C)[C@H](O)[C@](O)(Cc1ccccc1)[C@@H](c1ccccc1)N3` was 115 to 122 °C. Compound `CCS(=O)(=O)Nc1cnc(N2CCC(C(=O)O)CC2)nc1NCc1ccccc1` came in with a melting point of 205 °C. The value for `CC(=O)Nc1ccccc1CC1NC(=O)NC1=O` (stereo not given) was 200 to 202 °C; that for `CCC(C#N)(CC)c1nsc2ccc(-n3c(=O)cc(C(F)(F)F)n(C)c3=O)cc12` was 76 to 78 °C; that for `CC(=O)C(=[N+]=[N-])C(=O)CCc1ccc(S(=O)(=O)Cl)cc1` was 58 to 59.5 °C.

Regarding `COCOCc1nc(N)c2nccnc2n1`, the melting point lay in the range of 129 to 131 °C.

For the compound `CC(C)C[C@H](NC(=O)OCc1ccccc1)C(=O)N[C@@H](Cc1ccccc1)C(=O)CS(C)=O` (stereo not given in full), the melting point was 97 to 102 °C. `O=C(NC1C(O)=COC2=C1SC([N+](=O)[O-])C2)c1ccc(C(F)(F)F)cc1` (stereo not given) displayed a melting point of 219 to 220 °C. `CC1(C)CCC(C)(C)c2cc3c(cc21)OCC3(C)c1cc(C=C(Br)Br)cs1` (stereo not given): the melting point was found to be 124 °C. In the case of `CC1(C)CCc2c(N3CCOCC3)nc3sc4c(NCCc5c[nH]cn5)ncnc4c3c2C1`, the melting point is 223 to 224 °C. The value for `COc1ccc(C2CCCCC2)cc1-c1csc(NC(=O)N2CCN(C[C@@H]3CCCN(CC#N)C3)CC2)n1` was 106 °C; that for `Cc1cc2c(cc1C(=O)c1c(C(F)(F)F)ccnc1Cl)OCO2` was 119 to 122 °C; that for `CCSc1ccc(-c2cnccn2)c2c1C(=O)CC(C)C2` (stereo not given) was 152 to 154 °C. `C[C@H]1N(C(=O)c2ccc(C(F)(F)F)cc2)CC(=O)O[C@@]1(Cn1cncn1)c1ccc(C(F)(F)F)cc1` (relative stereo): the melting point fell in the range of 189 to 190 °C. `Cc1cc(OC(=O)N(C)C)nc(C(Cl)(Cl)Cl)n1` registered a melting point of 83.5 to 84.5 °C. `CCCc1nc2ccccc2c(=O)n1Cc1ccc(-c2ccccc2-c2nnn[nH]2)cc1` had a melting point of 171 to 172 °C. Compound `Cc1c(C)c(N2Cc3cc(Cl)c(Cl)cc3C2)c(C)c2c1OC(C)(C)C2c1ccc(F)cc1` (stereo not given) showed a melting point of 233 to 238 °C. The compound `c1cc(COc2ccc3ccccc3c2)cc(-c2nnn[nH]2)c1` registered a melting point of 200 to 202 °C.

Turning to `C=CCN(CC=C)c1nc(Cl)nc2c(SC)ncnc12`, the melting point lay in the range of 83 to 84 °C. With `NC[C@@H]1CCc2cc(S(=O)(=O)Nc3ccc(-n4ccn(CCCC5CCCCC5)c4=O)cc3)ccc2O1`, the melting point lay within 108 to 110 °C.

`Cc1ncn(-c2ccc(CNC(=O)c3nc4n(c(=O)c3OCc3ccccc3)CCOC4(C)C)c(F)c2)n1`: the melting point is 183 to 185 °C.

In turn, `CNC(=O)CC1CN=C(c2cc3cc(Oc4ccc(S(C)(=O)=O)nc4)ccc3[nH]2)S1` (stereo not given) gave a melting point of 178 to 180 °C. Turning to `C#CCOC(=O)Cn1cccc1-c1nc(-c2ccc(OC)cc2)c(-c2ccc(OC)cc2)s1`, the melting point fell in the range of 100 to 103 °C. With `c1ccc2c(c1)CCN(CCSc1ccnc(CSc3nc4ccccc4[nH]3)c1)C2`, the melting point lay in the range of 125 to 127 °C.

Compound `C=CCC(C#N)(C#N)Cc1ccc(Cl)c(Cl)c1` returned a melting point of 71.8 °C. Consider `O=C1COc2cc3[nH]c(C(=O)N4CCC(Cc5ccc(F)cc5)CC4)cc3cc2N1`, for which the melting point fell in the range of 219 to 226 °C. The figure for `CC(=O)c1c(NC(=O)c2ccc([N+](=O)[O-])cc2)cccc1C(F)(F)F` is 245 °C; for `COc1ccc(Cl)c(S(=O)(=O)NC(=O)c2nc3c(Cl)cc(C(F)(F)F)cn3c2C)c1` it is 222 to 223 °C; for `CCCc1nc2c(N)nc3cc(OCc4ccc(C(C)(C)C)cc4)ccc3c2n1CC(C)C` it is 204 to 205 °C. As for `CCOC(=O)C1(C)C(=O)Nc2cc3[nH]c(-c4ccccc4)nc3cc21` (stereo not given), the melting point fell in the range of 178 to 182 °C. The compound `C=CCOCC(C)OC(=O)COc1ccc(Cl)c2cccnc12` (stereo not given) had a melting point of 59 °C. The value for `CN1C2CCC1CC(NC(=O)c1cc(Cl)cc3oc(-c4ccccc4)nc13)C2` (stereo not given) was 187 to 190 °C.
